{"source": "patent US20180258381A1", "about": "“BIO-LAMINA BIOREACTORS AND METHODS OF MAKING AND USING THE SAME” (Oregon State University, priority 2015, published 2018)", "key": {"[1]": {"tested_on": "MDH", "assay": "MDH activity reactivity assay (methanol SOUR), inhibitor trials", "assay_type": "cell-based, M. trichosporium OB3b", "description": "The procedure for measuring methanol dehydrogenase (MDH) activity by measuring the specific oxygen uptake rate (SOUR) has been tested on M. trichosporium OB3b cultures grown both in batch and in the chemostat. M. trichosporium OB3b cells were harvested using centrifugation. The supernatant was poured off and the cells were re-suspended in fresh media lacking a carbon source. Phosphate buffer solution was added to a sample chamber in which dissolved oxygen (DO) was measure with a DO probe. When the DO of the solution stabilized, the re-suspended cells were added to the sample chamber to measure baseline oxygen uptake by the cells without a carbon food source present. Methanol was then added to test for MDH activity. The difference in the oxygen uptake rates illustrates the MDH activity of the culture.\nMetabolic activity test methods have been developed to monitor specific activities in M. trichosporium OB3b cultures. A naphthalene oxidation assay was used to determine if sMMO is being expressed. An ethylene to ethylene oxide reaction assay and a methane oxidation assay was used to quantify MMO activity, and a methanol oxidation assay was used to estimate MDH activity. Concurrent batch metabolic tests can be conducted to investigate methanol inhibition of methane oxidation, cyclopropane to cyclopropanol conversion and concurrent/subsequent cyclopropanol inhibition of MDH activity, the effect of cyclopropanol inhibition on growth yield, and the effects of high oxygen concentration.\nThe effect of salts NaCl, NH4Cl and CaCl2 on MMO and MDH activity was evaluated using the reactivity assays described above."}, "[2]": {"tested_on": "M. trichosporium OB3b culture", "assay": "CP exposure of culture immobilized in alginate beads, sequencing batch reactors", "assay_type": "cell-based", "settings": "for MeOH Accumulation Efficiency (MeOH accumulation/CH4 consumed): initial 24 hours of incubation with CH4", "description": "In some embodiments, M. trichosporium OB3b culture was immobilized in alginate beads. M. trichosporium OB3b culture expressing sMMO was harvested and suspended to a final density of 10 g cell protein/L in 2% alginate. The alginate/cell mixture was extruded through a syringe needle into 100 mM CaCl2 to crosslink the alginate matrix, forming stable beads. Beads were rinsed with dH2O and re-suspended in 1/10 strength (dilute) growth media. M. trichosporium OB3b culture prepared this way is ideal for experimental manipulation such as CH4 or MeOH rate determinations after inhibitor exposure because beads can be quickly rinsed to remove trace inhibitor. OB3b culture immobilized in alginate in this way maintained activity for >7 days.\nA chemostat grown, sMMO expressing, M. trichosporium OB3b culture was immobilized in alginate beads, and exposed to CP for 2, 6, and 18 hours in the absence of CH4. After inhibition, the consumption of CH4 and accumulation of MeOH was monitored in the presence and absence of 20 mM formate in sequencing batch reactors (FIGS. 37A-37C). Alginate beads were rinsed, at 24 hour intervals, before suspension in fresh media plus CH4. There was no significant difference: i) in the rate of methane consumption in the treatments that were exposed to CP for 2, 6 or 18 h (p>0.5, 30-80 μmol CH4 consumed/d, Table 2); ii) in the efficiency of MeOH accumulation in any of the treatments (Table 2); and, in the effect of formate on MeOH accumulation (P>0.18) for any exposure time, probably due to lack of complete MDH inhibition (Table 3). It was also observed that MeOH accumulated to a greater degree during days 2 and 3 in treatments after 6 or 18 hours of CP exposure."}}}
{"smiles": "C1CC1", "note": "[CP, cyclopropane]", "values": [{"measurement": "Fraction of Activity Remaining, MDH", "setting": "[1]; CP 03 μmol", "value": 0.9}, {"measurement": "Fraction of Activity Remaining, MDH", "setting": "[1]; CP 32 μmol", "value": 0.2}, {"measurement": "Fraction of Activity Remaining, MDH", "setting": "[1]; CP 64 μmol", "value": 0.1}, {"measurement": "Rates of MeOH consumption, Post Exposure", "setting": "[2]; CP exposure 2 h", "value": "0.4 (0.0) μmol/h/mg protein"}, {"measurement": "MeOH Accumulation Efficiency (MeOH accumulation/CH4 consumed)", "setting": "[2]; CP exposure 2 h", "value": "19 (4) %"}, {"measurement": "Rates of MeOH consumption, Post Exposure", "setting": "[2]; CP exposure 6 h", "value": "0.6 (0.1) μmol/h/mg protein"}, {"measurement": "MeOH Accumulation Efficiency (MeOH accumulation/CH4 consumed)", "setting": "[2]; CP exposure 6 h", "value": "43 (1) %"}, {"measurement": "Rates of MeOH consumption, Post Exposure", "setting": "[2]; CP exposure 18 h", "value": "0.3 (0.1) μmol/h/mg protein"}, {"measurement": "MeOH Accumulation Efficiency (MeOH accumulation/CH4 consumed)", "setting": "[2]; CP exposure 18 h", "value": "13 (1) %"}, {"measurement": "rate of methane consumption", "setting": "[2]; treatments exposed to CP for 2, 6 or 18 h", "value": "30-80 μmol CH4 consumed/d"}]}
